Measurements taken from article PMC11091243, “PD-L1 targeted peptide demonstrates potent antitumor and immunomodulatory activity in cancer immunotherapy” (Frontiers in Immunology, 2024).

Legend:
Swiss mice = type: in vivo, mouse; settings: twice intraperitoneal 180 mg/kg (30 times effective amount), observed 14 days, data not shown
[1] = tested on: serum cytokines of CT26-bearing mice; assay: Cytokine ELISA of serum of treated CT26-bearing mice; type: in vivo, mouse; settings: 14 days of administration, versus untreated and control peptide groups
Method: After 14 days of continuous administration, 0.5-1.0 ml of peripheral blood was collected from the mice. Serum was isolated from peripheral blood using the posterior orbital venous plexus blood collection method. The serum was obtained by centrifuging at 2000 RMP for 10 minutes. Mouse total lymphocytes were isolated from the spleen using Ficoll density gradient fractionation (Shanghai Biotech Bioengineering). In 200 μL of RIPM medium with 10% FBS, 1×10^6 tumor cells were seeded in each well with a CT26: lymphocyte ratio of 1:2 and incubated for 48 and 72 hours. Cell growth medium was harvested by centrifuging at 2000 RPM for 10 min. For the analysis of cytokine production, lymphocyte growth media served as a positive control and cell-free growth medium served as a negative control. Following the manufacturer’s instructions, the levels of IL-2, IL-4, IL-6, IL-10, TNF-α and IFN-γ in the blood and cell growth media were assessed using LEGEND MAX™ ELISA kit (BioLegend Inc, USA). Three duplicates of each experiment were carried out.

CT26 cells [2] = assay: Cytotoxicity of spleen lymphocytes of treated mice against CT26 cells (CCK8); type: cell-based, mouse; settings: CT26:lymphocyte 1:2, 48 h, CCK8, n = 6, versus untreated and control peptide groups
Method: After 14 consecutive days of administration, total lymphocytes were isolated from mouse spleens using Ficoll density gradient fractionation, which was provided by Shanghai Biotech Bioengineering. Before co-incubation with lymphocytes, CT26 cells were treated with 100 μg/mL mitomycin C (MMC) for 2 hours for […] experiments. For cytotoxicity experiments, about 1×10^6 tumor cells were seeded in each well with a CT26: lymphocyte ratio of 1: 2 in 200 μL RIPM medium plus 10% FBS for 48 h. A corresponding negative control group was also designed. During the final two hours of the incubation, 10 µL of CCK8 reagent was added to each well following the manufacturer’s instructions (Biotech Bioengineering Cat: E606335). Using an ELISA plate reader (Molecular Devices, USA) the absorbance was determined at 450 nm. There were three duplicates of each experiment.

CT26 cells [3] = assay: CCK8 proliferation assay on CT26 cells; type: cell-based, mouse; settings: 0.1-1 mg/ml, 8 or 24 h, CCK8, n = 3
Method: To observe the impact of PPL-C on tumor cells and lymphocyte proliferation, the Counting Kit 8 (CCK8) reagent was employed. 20,000 cells/well were cultured in 96-well plates. Cells were treated for 8 or 24 hours with PPL-C (0.1, 0.25, 0.5, and 1 mg/ml) or not. Following the manufacturer guidelines, 10 µl of the CCK8 reagent (from Biotech Bioengineering, Cat: E606335) was applied to each well two hours before the incubation period ended. Using an ELISA plate reader from Molecular Devices (United States) the sample absorbance was calculated at 450 nm. To ensure repeatability, each experiment was replicated. By assessing absorbance at 450 nm, the CCK8 assay measures cell viability and proliferation.

CT26 tumor = type: in vivo, mouse
Method: The investigators conducting the animal studies were not blinded. […] The mice were then randomized into different treatment groups.
(§1) The mice’s tumor volumes were measured by calipers after they were randomly allocated to various treatment groups. Every day tumor volumes were measured along axes (a and b) that are orthogonal to one another, and they were estimated by the equation tumor volume = π/6 × a × b^2. After the tumor was established (approximately 7 days), each group was subcutaneously injected with PPL-C (6 or 11 mg/kg), control peptide (11 mg/kg), endotoxin-free PD-L1 antibody (200 μg), or control antibody, following specific treatment procedures outlined in the flow chart. The Kaplan-Meier technique was used to determine survival differences for each group, and the log-rank test using the survival R package version 2.38-3 was applied to get the overall p-value.

[4] = tested on: splenic lymphocyte subsets of CT26-bearing Balb/c mice; assay: Flow cytometry of spleen lymphocytes of CT26-bearing mice after treatment; type: in vivo; settings: mouse, in vivo
Method: as §1
To differentiate lymphocytes, spleen monocytes were separated via isodensity centrifugation. For flow cytometry evaluation, cell-surface and intracellular staining was achieved through reagents from BD Biosciences or Biolegend, following previously described protocols. Re-suspending the 1× 10^6 cells in 100 μL of PBS before incubating them with the appropriate antibodies. Data were collected using a BD Biosciences FACSCalibur flow cytometer, Germany, and analyzed using FlowJo 7.6 software, USA. Based on scatter signals and 7-Amino-actinomycin D fluorescence, dead cells, and cell debris were removed from the study.

Compound: CC(C)[C@H](NC(=O)[C@H](CO)NC(=O)[C@@H](NC(=O)[C@@H](N)CO)C(C)C)C(=O)N[C@@H](CO)C(=O)N[C@@H](Cc1c[nH]cn1)C(=O)N[C@@H](Cc1ccccc1)C(=O)N[C@@H](CCC(N)=O)C(=O)N[C@@H](CCCCN)C(=O)N[C@H](C(=O)N[C@@H](Cc1c[nH]c2ccccc12)C(=O)N[C@H](C(=O)N[C@H](C(=O)NCC(=O)NCC(=O)NCC(=O)N[C@@H](CO)C(=O)N[C@@H](CCCCN)C(N)=O)C(C)C)C(C)C)C(C)C [PPL-C]
- Acute toxicity (Swiss mice): no acute toxicity
- IFN-γ, IL-2, IL-4 and IL-6 secretion in serum [1]: significantly promoted
- IL-10 secretion in serum [1]: lower IL-10 secretion
- Effect of lymphocytes from treated mice on tumor cell proliferation (CT26 cells [2]): significantly inhibited tumor cell proliferation
- Growth of CT26 cells after peptide administration (direct cytotoxicity) (CT26 cells [3]): grew normally
- Increase in survival time of CT26 tumor-bearing mice (CT26 tumor; 11 mg/kg s.c. around the tumor, dosing-schedule study, saline as negative control): approximately 50%
- Increase in survival time compared to the control peptide (CT26 tumor; reduced dose, s.c. around the tumor every day or every other day): approximately 50%
- Survival time of CT26 tumor-bearing mice (CT26 tumor; reduced dose, s.c. around the tumor every day or every other day, n = 6, P<0.001): 81 days
- Percentage of NK cells in spleen (CD49b/Nkp46, upper right quadrant) [4]: 7.79%
